From patent US20250312499A1, “KISSPEPTIN RECEPTOR (KISS1R) TARGETED THERAPEUTICS AND USES THEREOF” (priority 2024, published 2025)
Numbered stars: 1 amine (or outer) side, 2 acyl side, 3 side chain; on linkers, the order of the positions; unused ones are H or OH. Square brackets hold non-standard residues; d marks the D form. Side chains are listed from the residue outwards. Peptide text beside a SMILES is read from it. * marks the point of attachment. DOTA = O=C(O)CN1CCN(CC(=O)O)CCN(CC(=O)*)CCN(CC(=O)O)CC1; Gly(N-(3-F-4-Me-benzyl)) = Cc1ccc(CNCC(=O)*)cc1F; Butanoyl(4-(4-MePh)) = Cc1ccc(CCCC(=O)*)cc1; Api(1-amidino) = N=C(N)N1CCC(N)(C(=O)O)CC1; Bip = N[C@@H](Cc1ccc(-c2ccccc2)cc1)C(=O)O; Phe(4-I) = N[C@@H](Cc1ccc(I)cc1)C(=O)O; γGlu = O=C(O)[C@H](CCC(=O)[*:2])N[*:1]; d2Nal = N[C@H](Cc1ccc2ccccc2c1)C(=O)O; Palmitoyl = CCCCCCCCCCCCCCCC(=O)*; Trx = NC[C@H]1CC[C@H](C(=O)O)CC1; X1 = O=C(CN1CCC(N[*:1])CC1)[*:2]; 4Pal = N[C@@H](Cc1ccncc1)C(=O)O; d4Pal = N[C@H](Cc1ccncc1)C(=O)O; 2Thi = N[C@@H](Cc1cccs1)C(=O)O; Cha = N[C@@H](CC1CCCCC1)C(=O)O; PEG4 = NCCOCCOCCOCCOCCC(=O)O; 4Amb = NCc1ccc(C(=O)O)cc1; Api = NC1(C(=O)O)CCNCC1; Ahx = NCCCCCC(=O)O; azaGly = NNC(=O)O; Sar = CNCC(=O)O

What follows are compounds tested against human kisspeptin receptor (Homo sapiens (Human), UniProt Q969F8) (assay: Human KISS1R binding assay (membrane competition binding)). Conditions: 90 min at room temperature; competition with 0.2 nM [125I]-metastin (45-54); Flp-In T-Rex 293 kisspeptin membranes; metal complexes nonradioactive Ga, In, Lu; read-out: hKiSSR Binding Ki (90 min).
Outline: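 Radioligand competition: 0.2 nM [125I]-metastin (45-54) displaced by test ligand (usually 0–10,000 nM) over 90 min at room temperature, pH 7.4 buffer with 0.1% BSA. Receptor source is crude membrane (5–10 μg) from tetracycline-induced Flp-In T-Rex 293 cells. Bound label filtered and counted; Ki from non-linear regression.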

Sequence of human kisspeptin receptor (Q969F8 whole entry): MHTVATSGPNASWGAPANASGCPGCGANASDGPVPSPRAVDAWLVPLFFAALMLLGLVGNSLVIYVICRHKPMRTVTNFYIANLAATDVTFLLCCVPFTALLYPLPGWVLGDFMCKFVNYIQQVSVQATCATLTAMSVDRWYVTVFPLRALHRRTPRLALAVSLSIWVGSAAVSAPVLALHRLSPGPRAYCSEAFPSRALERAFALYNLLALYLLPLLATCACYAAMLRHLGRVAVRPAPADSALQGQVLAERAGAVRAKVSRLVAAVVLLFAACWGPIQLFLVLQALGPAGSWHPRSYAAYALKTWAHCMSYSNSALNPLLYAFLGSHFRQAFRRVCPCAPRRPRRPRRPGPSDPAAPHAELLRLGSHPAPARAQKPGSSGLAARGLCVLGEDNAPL

Structure (SMILES)	Ki
CNCC(=O)N1CCC(NC(=O)[C@H](CC(C)C)NC(=O)NNC(=O)[C@H](Cc2ccccc2)NC(=O)[C@@H](NC(=O)[C@H](CC(N)=O)NC(=O)[C@@H](Cc2ccc3ccccc3c2)NC(=O)[C@@H](Cc2ccc(O)cc2)NC(=O)CCCCCNC(=O)CN2CCN(CC(=O)O)CCN(CC(=O)O)CCN(CC(=O)O)CC2)[C@@H](C)O)(C(=O)N[C@@H](Cc2c[nH]c3ccccc23)C(N)=O)CC1 [Compound 201] ({DOTA-Ahx}-[dY][d2Nal]NTF[azaGly]L[Api](Sar)W-NH2)	< 10 nM
CCCCCCCCCCCCCCCC(=O)N[C@@H](CCC(=O)N[C@@H](CCCCNC(=O)CCOCCOCCOCCOCCNC(=O)CN1CCN(CC(=O)O)CCN(CC(=O)O)CCN(CC(=O)O)CC1)C(=O)N[C@H](Cc1ccc(O)cc1)C(=O)N[C@H](Cc1c[nH]c2ccccc12)C(=O)N[C@@H](CC(N)=O)C(=O)N[C@H](C(=O)N[C@@H](Cc1ccccc1)C(=O)NNC(=O)N[C@@H](CC(C)C)C(=O)NC1(C(=O)N[C@@H](Cc2c[nH]c3ccccc23)C(N)=O)CCN(C(=O)CNCc2ccc(C)c(F)c2)CC1)[C@@H](C)O)C(=O)O [Compound 119] ({Palmitoyl-γGlu}-K([PEG4-DOTA])[dY][dW]NTF[azaGly]L[Api](Gly(N-(3-F-4-Me-benzyl)))W-NH2)	< 10 nM
Cc1ccc(CNCC(=O)N2CCC(NC(=O)[C@H](CC(C)C)NC(=O)NNC(=O)[C@H](CC3CCCCC3)NC(=O)[C@@H](NC(=O)[C@H](CC(N)=O)NC(=O)[C@@H](Cc3ccncc3)NC(=O)[C@@H](Cc3ccc(O)cc3)NC(=O)CN3CCN(CC(=O)O)CCN(CC(=O)O)CCN(CC(=O)O)CC3)[C@@H](C)O)(C(=O)N[C@@H](Cc3c[nH]c4ccccc34)C(N)=O)CC2)cc1F [Compound 315] ({DOTA}-[dY][d4Pal]NT[Cha][azaGly]L[Api](Gly(N-(3-F-4-Me-benzyl)))W-NH2)	< 10 nM
Cc1ccc(CNCC(=O)N2CCC(NC(=O)[C@H](CC(C)C)NC(=O)NNC(=O)[C@H](Cc3ccccc3)NC(=O)[C@@H](NC(=O)[C@H](CC(N)=O)NC(=O)[C@@H](Cc3c[nH]c4ccccc34)NC(=O)[C@H](N)Cc3ccc(O)cc3)[C@@H](C)O)(C(=O)N[C@@H](Cc3c[nH]c4ccccc34)C(N)=O)CC2)cc1F [Compound 402] (H-[dY][dW]NTF[azaGly]L[Api](Gly(N-(3-F-4-Me-benzyl)))W-NH2)	< 10 nM
Cc1ccc(CNCC(=O)N2CCC(NC(=O)[C@H](CC(C)C)NC(=O)NNC(=O)[C@H](Cc3ccccc3)NC(=O)CCCCCNC(=O)[C@@H](Cc3ccncc3)NC(=O)[C@@H](Cc3ccc(O)cc3)NC(=O)CN3CCN(CC(=O)O)CCN(CC(=O)O)CCN(CC(=O)O)CC3)(C(=O)N[C@@H](Cc3c[nH]c4ccccc34)C(N)=O)CC2)cc1F [Compound 186] ({DOTA}-[dY][d4Pal][Ahx]F[azaGly]L[Api](Gly(N-(3-F-4-Me-benzyl)))W-NH2)	< 10 nM
CNCC(=O)N1CCC(NC(=O)[C@H](CC(C)C)NC(=O)NNC(=O)[C@H](Cc2ccccc2)NC(=O)[C@@H](NC(=O)[C@H](CC(N)=O)NC(=O)[C@@H](Cc2ccc3ccccc3c2)NC(=O)[C@H](N)Cc2ccc(O)cc2)[C@@H](C)O)(C(=O)N[C@@H](Cc2ccccc2)C(N)=O)CC1 [Compound 406] (H-[dY][d2Nal]NTF[azaGly]L[Api](Sar)F-NH2)	< 10 nM
Cc1ccc(CNCC(=O)N2CCC(NC(=O)[C@H](CC(C)C)n3cc([C@H](Cc4ccccc4)NC(=O)[C@H](N)CCCCNC(=O)CN4CCN(CC(=O)O)CCN(CC(=O)O)CCN(CC(=O)O)CC4)nn3)(C(=O)N[C@@H](Cc3c[nH]c4ccccc34)C(N)=O)CC2)cc1F [Compound 39]	> 100 nM
Cc1ccc(CNCC(=O)N2CCC(NC(=O)[C@H](CC(C)C)NC(=O)NNC(=O)[C@H](Cc3ccccc3)NC(=O)[C@@H](NC(=O)[C@H](CC(N)=O)NC(=O)[C@@H](Cc3ccncc3)NC(=O)[C@@H](Cc3ccc(O)cc3)NC(=O)CNC(=O)CN3CCN(CC(=O)O)CCN(CC(=O)O)CCN(CC(=O)O)CC3)[C@@H](C)O)(C(=O)N[C@@H](Cc3ccc(O)cc3)C(N)=O)CC2)cc1F [Compound 193] ({DOTA}-G[dY][d4Pal]NTF[azaGly]L[Api](Gly(N-(3-F-4-Me-benzyl)))Y-NH2)	< 10 nM
CC(=O)N[C@H](Cc1ccc(O)cc1)C(=O)N[C@H](Cc1c[nH]c2ccccc12)C(=O)N[C@@H](CC(N)=O)C(=O)N[C@H](C(=O)N[C@@H](CC1CCCCC1)C(=O)NNC(=O)N[C@@H](CC(C)C)C(=O)NC1(C(=O)N[C@@H](Cc2c[nH]c3ccccc23)C(N)=O)CCN(C(=O)CNCc2ccc(C)c(F)c2)CC1)[C@@H](C)O [Compound 391] (Ac-[dY][dW]NT[Cha][azaGly]L[Api](Gly(N-(3-F-4-Me-benzyl)))W-NH2)	< 10 nM
Cc1ccc(CCCC(=O)NCCCC[C@@H](NC(=O)CCCCCNC(=O)CN2CCN(CC(=O)O)CCN(CC(=O)O)CCN(CC(=O)O)CC2)C(=O)N[C@H](Cc2ccc(O)cc2)C(=O)N[C@H](Cc2ccc3ccccc3c2)C(=O)N[C@@H](CC(N)=O)C(=O)N[C@H](C(=O)N[C@@H](Cc2ccccc2)C(=O)NNC(=O)N[C@@H](CC(C)C)C(=O)NC2(C(=O)N[C@@H](Cc3ccccc3)C(N)=O)CCN(C(=N)N)CC2)[C@@H](C)O)cc1 [Compound 309] ({DOTA-Ahx}-[dK](Butanoyl(4-(4-MePh)))[dY][d2Nal]NTF[azaGly]L[Api(1-amidino)]F-NH2)	< 10 nM
Cc1ccc(CNCC(=O)N2CCC(NC(=O)[C@H](CC(C)C)NC(=O)NNC(=O)[C@H](Cc3ccccc3)NC(=O)[C@@H](NC(=O)[C@H](CC(N)=O)NC(=O)CCCCCNC(=O)CN3CCN(CC(=O)O)CCN(CC(=O)O)CCN(CC(=O)O)CC3)[C@@H](C)O)(C(=O)N[C@@H](Cc3c[nH]c4ccccc34)C(N)=O)CC2)cc1F [Compound 26] ({DOTA-Ahx}-NTF[azaGly]L[Api](Gly(N-(3-F-4-Me-benzyl)))W-NH2)	< 10 nM
Cc1ccc(CNCC(=O)N2CCC(NC(=O)[C@H](CC(C)C)NC(=O)NNC(=O)[C@H](Cc3ccccc3)NC(=O)[C@H]3CC[C@H](CNC(=O)[C@@H](CCC(=O)O)NC(=O)CN4CCN(CC(=O)O)CCN(CC(=O)O)CCN(CC(=O)O)CC4)CC3)(C(=O)N[C@@H](Cc3c[nH]c4ccccc34)C(N)=O)CC2)cc1F [Compound 166] ({DOTA}-[dE][Trx]F[azaGly]L[Api](Gly(N-(3-F-4-Me-benzyl)))W-NH2)	< 10 nM
Cc1ccc(CNCC(=O)N2CCC(NC(=O)[C@H](CC(C)C)NC(=O)NNC(=O)[C@H](Cc3ccccc3)NC(=O)[C@@H](NC(=O)[C@H](CC(N)=O)NC(=O)[C@@H](Cc3c[nH]c4ccccc34)NC(=O)[C@@H](Cc3ccc(O)cc3)NC(=O)CCCCCNC(=O)CN3CCN(CC(=O)O)CCN(CC(=O)O)CCN(CC(=O)O)CC3)[C@@H](C)O)(C(=O)N[C@@H](Cc3ccncc3)C(N)=O)CC2)cc1F [Compound 105] ({DOTA-Ahx}-[dY][dW]NTF[azaGly]L[Api](Gly(N-(3-F-4-Me-benzyl)))[4Pal]-NH2)	< 10 nM
Cc1ccc(CNCC(=O)N2CCC(NC(=O)[C@H](CC(C)C)NC(=O)NNC(=O)[C@H](Cc3ccccc3)NC(=O)[C@@H](NC(=O)[C@H](CC(N)=O)NC(=O)[C@@H](Cc3c[nH]c4ccccc34)NC(=O)[C@@H](Cc3ccc(O)cc3)NC(=O)CCCCCNC(=O)CN3CCN(CC(=O)O)CCN(CC(=O)O)CCN(CC(=O)O)CC3)[C@@H](C)O)(C(=O)N[C@H](Cc3c[nH]c4ccccc34)C(N)=O)CC2)cc1F [Compound 383] ({DOTA-Ahx}-[dY][dW]NTF[azaGly]L[Api](Gly(N-(3-F-4-Me-benzyl)))[dW]-NH2)	< 10 nM
CC(C)C[C@H](NC(=O)NNC(=O)[C@H](Cc1ccc(I)cc1)NC(=O)[C@@H](NC(=O)[C@H](CC(N)=O)NC(=O)[C@H](Cc1ccc(I)cc1)NC(=O)[C@@H](Cc1ccc(O)cc1)NC(=O)CN1CCN(CC(=O)O)CCN(CC(=O)O)CCN(CC(=O)O)CC1)[C@@H](C)O)C(=O)NC1(C(=O)N[C@@H](Cc2ccncc2)C(N)=O)CCN(C(=N)N)CC1 [Compound 121] ({DOTA}-[dY][Phe(4-I)]NT[Phe(4-I)][azaGly]L[Api(1-amidino)][4Pal]-NH2)	10 to 100 nM
Cc1ccc(CNCC(=O)N2CCC(NC(=O)[C@H](CC(C)C)NC(=O)NNC(=O)[C@H](Cc3ccccc3)NC(=O)[C@@H](NC(=O)[C@H](CC(N)=O)NC(=O)[C@H](Cc3ccc(-c4ccccc4)cc3)NC(=O)[C@@H](Cc3ccc(O)cc3)NC(=O)CCCCCNC(=O)CN3CCN(CC(=O)O)CCN(CC(=O)O)CCN(CC(=O)O)CC3)[C@@H](C)O)(C(=O)N[C@@H](Cc3c[nH]c4ccccc34)C(N)=O)CC2)cc1F [Compound 363] ({DOTA-Ahx}-[dY][Bip]NTF[azaGly]L[Api](Gly(N-(3-F-4-Me-benzyl)))W-NH2)	< 10 nM
Cc1ccc(CNCC(=O)N2CCC(NC(=O)[C@H](CC(C)C)NC(=O)NNC(=O)[C@H](Cc3ccccc3)NC(=O)[C@@H](NC(=O)[C@H](CC(N)=O)NC(=O)c3ccc(CNC(=O)[C@H](Cc4ccc(O)cc4)NC(=O)CNC(=O)CN4CCN(CC(=O)O)CCN(CC(=O)O)CCN(CC(=O)O)CC4)cc3)[C@@H](C)O)(C(=O)N[C@@H](Cc3c[nH]c4ccccc34)C(N)=O)CC2)cc1F [Compound 213] ({DOTA}-GY[4Amb]NTF[azaGly]L[Api](Gly(N-(3-F-4-Me-benzyl)))W-NH2)	< 10 nM
Cc1ccc(CNCC(=O)N2CCC(NC(=O)[C@H](CC(C)C)NC(=O)NNC(=O)[C@H](CC3CCCCC3)NC(=O)[C@@H](NC(=O)[C@H](CC(N)=O)NC(=O)CCCCCNC(=O)CN3CCN(CC(=O)O)CCN(CC(=O)O)CCN(CC(=O)O)CC3)[C@@H](C)O)(C(=O)N[C@@H](Cc3c[nH]c4ccccc34)C(N)=O)CC2)cc1F [Compound 313] ({DOTA-Ahx}-NT[Cha][azaGly]L[Api](Gly(N-(3-F-4-Me-benzyl)))W-NH2)	< 10 nM
Cc1ccc(CNCC(=O)N2CCC(NC(=O)[C@H](CC(C)C)NC(=O)NNC(=O)[C@H](Cc3cccs3)NC(=O)[C@@H](NC(=O)[C@H](CC(N)=O)NC(=O)[C@H](CCC(=O)O)NC(=O)CN3CCC(NC(=O)CN4CCN(CC(=O)O)CCN(CC(=O)O)CCN(CC(=O)O)CC4)CC3)[C@@H](C)O)(C(=O)N[C@@H](Cc3c[nH]c4ccccc34)C(N)=O)CC2)cc1F [Compound 218] ({DOTA}-[X1]ENT[2Thi][azaGly]L[Api](Gly(N-(3-F-4-Me-benzyl)))W-NH2)	< 10 nM
